Where “and” joins values, the source holds several entries; their conditions need not be identical. Identical values can stand only once. Toxic doses and inconclusive results are not listed. Rule as the data show it: active = T/C of 150% or more; inactive = T/C below 125%.
Test system: L1210 leukemia ip in BDF1 mice, survival T/C
Experiment: NCI In Vivo Anticancer Drug Screen. Data for tumor model L1210 Leukemia (intraperitoneal) in B6D2F1 (BDF1) mice
Details: endpoint: mean survival time, higher = longer survival
In short: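 Antitumor effect is assessed in tumor-bearing animals. Survival in the compound arm is compared with a vehicle-dosed control arm and expressed as their quotient.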

[1] = dose: 100.0 mg/kg/injection, schedule: Q04DX003 (ip), vehicle: other
[2] = dose: 200.0 mg/kg/injection, schedule: Q04DX003 (ip), vehicle: other
[3] = dose: 400.0 mg/kg/injection, schedule: Q04DX003 (ip), vehicle: other
[4] = dose: 100.0 mg/kg/injection, schedule: Q04DX002 (ip), vehicle: Klucel (hydroxypropylcellulose) (HPC)
[5] = dose: 200.0 mg/kg/injection, schedule: Q04DX002 (ip), vehicle: Klucel (hydroxypropylcellulose) (HPC)
[6] = dose: 400.0 mg/kg/injection, schedule: Q04DX002 (ip), vehicle: Klucel (hydroxypropylcellulose) (HPC)
[7] = dose: 100.0 mg/kg/injection, schedule: Q04DX003 (ip), vehicle: Klucel (hydroxypropylcellulose) (HPC)
[8] = dose: 200.0 mg/kg/injection, schedule: Q04DX003 (ip), vehicle: Klucel (hydroxypropylcellulose) (HPC)
[9] = dose: 400.0 mg/kg/injection, schedule: Q04DX003 (ip), vehicle: Klucel (hydroxypropylcellulose) (HPC)
[10] = dose: 100.0 mg/kg/injection, schedule: Q01DX001 (ip), vehicle: saline
[11] = dose: 200.0 mg/kg/injection, schedule: Q01DX001 (ip), vehicle: saline
[12] = dose: 400.0 mg/kg/injection, schedule: Q01DX001 (ip), vehicle: saline
[13] = dose: 100.0 mg/kg/injection, schedule: Q01DX001 (ip), vehicle: other
[14] = dose: 200.0 mg/kg/injection, schedule: Q01DX001 (ip), vehicle: other

Measured: T/C

CCSCC(O)CCl (stereo not drawn)
inactive: dose: 37.5 mg/kg/injection, schedule: Q04DX002 (ip), vehicle: saline 103 % of control | dose: 37.5 mg/kg/injection, schedule: Q04DX003 (ip), vehicle: Klucel (hydroxypropylcellulose) (HPC) 115 % of control | dose: 75.0 mg/kg/injection, schedule: Q04DX002 (ip), vehicle: saline 107 % of control | dose: 75.0 mg/kg/injection, schedule: Q04DX003 (ip), vehicle: Klucel (hydroxypropylcellulose) (HPC) 105 % of control | dose: 150.0 mg/kg/injection, schedule: Q04DX002 (ip), vehicle: saline 100 % of control | dose: 150.0 mg/kg/injection, schedule: Q04DX003 (ip), vehicle: Klucel (hydroxypropylcellulose) (HPC) 98 % of control

Cc1ccc(S(=O)(=O)Nc2ccc(C(=O)NC(CCC(=O)O)C(=O)O)cc2)cc1 (stereo not drawn)
inactive: dose: 100.0 mg/kg/injection, schedule: Q04DX003 (ip), vehicle: gum acacia 95 % of control | dose: 200.0 mg/kg/injection, schedule: Q04DX003 (ip), vehicle: gum acacia 98 % of control | dose: 400.0 mg/kg/injection, schedule: Q04DX003 (ip), vehicle: gum acacia 95 % of control

O=[N+]([O-])c1ccc(C2OC(c3ccncc3)=NC2CO)cc1 (stereo not drawn)
inactive: dose: 12.5 mg/kg/injection, schedule: Q04DX002 (ip), vehicle: saline 90 % of control | dose: 25.0 mg/kg/injection, schedule: Q04DX002 (ip), vehicle: saline 97 % of control | dose: 50.0 mg/kg/injection, schedule: Q01DX009 (ip), vehicle: saline 96 % of control | dose: 50.0 mg/kg/injection, schedule: Q04DX002 (ip), vehicle: saline 90 % of control | dose: 75.0 mg/kg/injection, schedule: Q01DX009 (ip), vehicle: saline 102 % of control | dose: 115.0 mg/kg/injection, schedule: Q01DX009 (ip), vehicle: saline 101 % of control

CCOc1cc(C=Nc2cccc(C(F)(F)F)c2)ccc1O
inactive: dose: 100.0 mg/kg/injection, schedule: Q01DX009 (ip), vehicle: other 100 % of control | [1] 95 % of control | dose: 200.0 mg/kg/injection, schedule: Q01DX009 (ip), vehicle: other 99 % of control | [2] 90 % of control | [3] 92 % of control

O=C(COc1ccc(F)cc1)N(CCO)CCO
inactive: [4] 96 % of control | [5] 92 % of control | [6] 114 % of control

Cc1ccc(S(=O)(=O)Oc2ccccc2)cc1
inactive: dose: 100.0 mg/kg/injection, schedule: Q01DX009 (ip), vehicle: Klucel (hydroxypropylcellulose) (HPC) 96 % of control | [7] 94 % of control | dose: 200.0 mg/kg/injection, schedule: Q01DX009 (ip), vehicle: Klucel (hydroxypropylcellulose) (HPC) 100 % of control | [8] 94 % of control | dose: 400.0 mg/kg/injection, schedule: Q01DX009 (ip), vehicle: Klucel (hydroxypropylcellulose) (HPC) 97 % of control | [9] 92 % of control

CCCCCCCCCCCCC(=O)N(CC)CC
inactive: [4] 87 % of control | [5] 94 % of control | [6] 94 % of control

CCOC(=O)c1cnc(N(C)CC(=O)O)[nH]c1=O
inactive: [4] 94 % of control | [5] 94 % of control | [6] 107 % of control

O=C1C(c2ccccc2)=C2C(=C1c1ccccc1)c1cccc3cccc2c13
inactive: dose: 50.0 mg/kg/injection, schedule: Q01DX001 (ip), vehicle: saline 97 % of control | [10] 97 % of control | dose: 100.0 mg/kg/injection, schedule: Q01DX009 (ip), vehicle: saline with Tween-80 92 % of control | [11] 100 % of control | dose: 200.0 mg/kg/injection, schedule: Q01DX009 (ip), vehicle: saline with Tween-80 103 % of control | [12] 120 % of control | dose: 400.0 mg/kg/injection, schedule: Q01DX009 (ip), vehicle: saline with Tween-80 97 % of control

CC(=O)OC1COC(SC(C)=O)C(OC(C)=O)C1OC(C)=O (stereo not drawn)
inactive: [13] 95 % of control | [14] 104 % of control | dose: 400.0 mg/kg/injection, schedule: Q01DX001 (ip), vehicle: other 95 % of control

O=CO.[Cr]
inactive: [10] 102 % of control | [11] 98 % of control | [12] 98 % of control

Fc1cccc2ccc(Br)cc12
inactive: [7] 100 % of control | [8] 100 % of control | [9] 106 % of control

CC(CS(=O)(=O)O)NC(CO)(CO)CO (stereo not drawn)
inactive: dose: 100.0 mg/kg/injection, schedule: Q01DX009 (ip), vehicle: saline 104 % of control | dose: 100.0 mg/kg/injection, schedule: Q04DX003 (ip), vehicle: saline 100 % of control | dose: 200.0 mg/kg/injection, schedule: Q01DX009 (ip), vehicle: saline 98 % of control | dose: 200.0 mg/kg/injection, schedule: Q04DX003 (ip), vehicle: saline 100 % of control | dose: 400.0 mg/kg/injection, schedule: Q01DX009 (ip), vehicle: saline 96 % of control | dose: 400.0 mg/kg/injection, schedule: Q04DX003 (ip), vehicle: saline 100 % of control

O=C1CCC(c2ccccc2)(C2CCN(Cc3ccc(F)cc3)CC2)C(=O)N1 (stereo not drawn)
inactive: dose: 6.25 mg/kg/injection, schedule: Q01DX009 (ip), vehicle: saline 97 % of control | dose: 12.5 mg/kg/injection, schedule: Q01DX009 (ip), vehicle: saline 102 % of control | dose: 25.0 mg/kg/injection, schedule: Q01DX009 (ip), vehicle: saline 102 % of control

CCCCCCN(CCCCCC)CP(=S)(CN(CCCCCC)CCCCCC)CN(CCCCCC)CCCCCC
inactive: dose: 100.0 mg/kg/injection, schedule: Q01DX001 (ip), vehicle: saline with Tween-80 99 % of control | dose: 200.0 mg/kg/injection, schedule: Q01DX001 (ip), vehicle: saline with Tween-80 104 % of control

NC1(C(=O)O)Cc2ccccc2B(O)OC1=O (stereo not drawn)
inactive: [7] 98 % of control | [8] 96 % of control | [9] 106 % of control

N#CCc1cc(Cl)ccc1OCC(=O)O
inactive: [4] 95 % of control | [5] 103 % of control | [6] 100 % of control

COc1ccc(OC)c(NC(=O)CI)c1
inactive: dose: 25.0 mg/kg/injection, schedule: Q01DX001 (ip), vehicle: Klucel (hydroxypropylcellulose) (HPC) 103 % of control | dose: 50.0 mg/kg/injection, schedule: Q01DX001 (ip), vehicle: Klucel (hydroxypropylcellulose) (HPC) 104 % of control | dose: 100.0 mg/kg/injection, schedule: Q01DX001 (ip), vehicle: Klucel (hydroxypropylcellulose) (HPC) 98 % of control

OCC1CC2CC(O)C1C2 (stereo not drawn)
inactive: dose: 75.0 mg/kg/injection, schedule: Q01DX001 (ip), vehicle: saline 100 % of control and 110 % of control | dose: 150.0 mg/kg/injection, schedule: Q01DX001 (ip), vehicle: saline 108 % of control

CNC(=O)Oc1cccc2c1C(=O)OC2=O
inactive: [13] 93 % of control | [1] 94 % of control | [14] 90 % of control | [2] 94 % of control | [3] 98 % of control

From PubChem BioAssay AID248 (DTP/NCI, 2004)
